Patent publication US6489469B1, “Method for storing or transporting erythritol solution” (Nikken Chemicals Co., Ltd., priority 1999, dated 2002)

Columns and labels:
[1] = system: Aspergillus flavus IFO 6343; experiment: Viable Count of Aspergillus flavus IFO 6343 in Erythritol Solution; format: cell-based
Protocol: (§1) Erythritol solutions of respective concentrations in the range of from 30 to 60% were prepared. To these were inoculated Staphylococcus aureus IFO 13276, Bacillus subtilis IFO 3134, and Escherichia coli IFO 3972 as bacteria, Candida albicans IFO 1549 and Saccharomyces cerevisiae ATCC 9763 as yeasts, Aspergillus niger IFO 6342, Aspergillus flavus IFO 6343, and Penicillium funiculosum IFO 6345 as fungi, respectively, in a population (concentration) of 10,000 cells/mL or more. After the inoculation, the solutions were stored at 30, 37, 45, 50, or 60° C., respectively, for 56 days and the number of viable cell was determined daily. The determination of the number of viable cell was performed by a method of coating 0.1 mL of appropriately diluted sample cultivation on an agar plate and cultivating and counting the number of viable cell (the number of colony) that grew after the cultivation.

[2] = system: Candida albicans IFO 1549; experiment: Viable Count of Candida albicans IFO 1549 in Erythritol Solution; format: cell-based
Protocol: as §1

[3] = Long-term Stability of Erythritol Solution by High Temperature Storage; format: physicochemical; design: change in the degree of coloring / Degree of Coloring: scale not given here
Protocol: solutions having erythritol concentrations of 50%, 55%, 58% and 62%, respectively, were prepared and stored at 55° C., 60° C., 65° C. and 75° C. respectively, for 2 months and degree of coloring, pH, and purity were measured and the degree of deterioration was studied.

[4] = 75° C., short period of 10 days or less
[5] = Storage Temperature: 55° C., Erythritol Concentration: 50%, 0 days
[6] = Storage Temperature: 55° C., Erythritol Concentration: 50%, 10 days
[7] = Storage Temperature: 55° C., Erythritol Concentration: 50%, 30 days
[8] = Storage Temperature: 55° C., Erythritol Concentration: 50%, 60 days
[9] = Storage Temperature: 60° C., Erythritol Concentration: 55%, 0 days
[10] = Storage Temperature: 60° C., Erythritol Concentration: 55%, 10 days
[11] = Storage Temperature: 60° C., Erythritol Concentration: 55%, 30 days
[12] = Storage Temperature: 60° C., Erythritol Concentration: 55%, 60 days
[13] = Storage Temperature: 65° C., Erythritol Concentration: 58%, 0 days
[14] = Storage Temperature: 65° C., Erythritol Concentration: 58%, 10 days
[15] = Storage Temperature: 65° C., Erythritol Concentration: 58%, 30 days
[16] = Storage Temperature: 65° C., Erythritol Concentration: 58%, 60 days
[17] = Storage Temperature: 75° C., Erythritol Concentration: 62%, 0 days
[18] = Storage Temperature: 75° C., Erythritol Concentration: 62%, 10 days
[19] = Storage Temperature: 75° C., Erythritol Concentration: 62%, 30 days
[20] = Storage Temperature: 75° C., Erythritol Concentration: 62%, 60 days

## OC[C@@H](O)[C@@H](O)CO [Erythritol Solution, erythritol]
[1]; 45° C., 30% w/w, Day 0
  The Number of Viable Cell: ≥ 10000 cells/mL
[1]; 45° C., 30% w/w, Day 3
  The Number of Viable Cell: ≥ 10000 cells/mL
[1]; 45° C., 30% w/w, Day 7
  The Number of Viable Cell: ≥ 10000 cells/mL
[1]; 45° C., 30% w/w, Day 14
  The Number of Viable Cell: ≥ 10000 cells/mL
[1]; 45° C., 30% w/w, Day 28
  The Number of Viable Cell: 0 cells/mL
[1]; 45° C., 30% w/w, Day 56
  The Number of Viable Cell: 0 cells/mL
[1]; 45° C., 40% w/w, Day 0
  The Number of Viable Cell: ≥ 10000 cells/mL
[1]; 45° C., 40% w/w, Day 3
  The Number of Viable Cell: ≥ 10000 cells/mL
[1]; 45° C., 40% w/w, Day 7
  The Number of Viable Cell: ≥ 10000 cells/mL
[1]; 45° C., 40% w/w, Day 14
  The Number of Viable Cell: ≥ 10000 cells/mL
[1]; 45° C., 40% w/w, Day 28
  The Number of Viable Cell: 0 cells/mL
[1]; 45° C., 40% w/w, Day 56
  The Number of Viable Cell: 0 cells/mL
[1]; 45° C., 50% w/w, Day 0
  The Number of Viable Cell: ≥ 10000 cells/mL
[1]; 45° C., 50% w/w, Day 3
  The Number of Viable Cell: ≥ 10000 cells/mL
[1]; 45° C., 50% w/w, Day 7
  The Number of Viable Cell: ≥ 10000 cells/mL
[1]; 45° C., 50% w/w, Day 14
  The Number of Viable Cell: 0 cells/mL
[1]; 45° C., 50% w/w, Day 28
  The Number of Viable Cell: 0 cells/mL
[1]; 45° C., 50% w/w, Day 56
  The Number of Viable Cell: 0 cells/mL
[1]; 50° C., 30% w/w, Day 0
  The Number of Viable Cell: ≥ 10000 cells/mL
[1]; 50° C., 30% w/w, Day 3
  The Number of Viable Cell: 0 cells/mL
[1]; 50° C., 30% w/w, Day 7
  The Number of Viable Cell: 0 cells/mL
[1]; 50° C., 30% w/w, Day 14
  The Number of Viable Cell: 0 cells/mL
[1]; 50° C., 30% w/w, Day 28
  The Number of Viable Cell: 0 cells/mL
[1]; 50° C., 30% w/w, Day 56
  The Number of Viable Cell: 0 cells/mL
[1]; 50° C., 40% w/w, Day 0
  The Number of Viable Cell: ≥ 10000 cells/mL
[1]; 50° C., 40% w/w, Day 3
  The Number of Viable Cell: 0 cells/mL
[1]; 50° C., 40% w/w, Day 7
  The Number of Viable Cell: 0 cells/mL
[1]; 50° C., 40% w/w, Day 14
  The Number of Viable Cell: 0 cells/mL
[1]; 50° C., 40% w/w, Day 28
  The Number of Viable Cell: 0 cells/mL
[1]; 50° C., 40% w/w, Day 56
  The Number of Viable Cell: 0 cells/mL
[1]; 50° C., 50% w/w, Day 0
  The Number of Viable Cell: ≥ 10000 cells/mL
[1]; 50° C., 50% w/w, Day 3
  The Number of Viable Cell: 0 cells/mL
[1]; 50° C., 50% w/w, Day 7
  The Number of Viable Cell: 0 cells/mL
[1]; 50° C., 50% w/w, Day 14
  The Number of Viable Cell: 0 cells/mL
[1]; 50° C., 50% w/w, Day 28
  The Number of Viable Cell: 0 cells/mL
[1]; 50° C., 50% w/w, Day 56
  The Number of Viable Cell: 0 cells/mL
[1]; temperature of 50° C. or more
  growth of the microbes: prevented from growing
  time after which microbes died: 3 days
[2]; 37° C., 30% w/w, Day 0
  The Number of Viable Cell: ≥ 10000 cells/mL
[2]; 37° C., 30% w/w, Day 3
  The Number of Viable Cell: ≥ 10000 cells/mL
[2]; 37° C., 30% w/w, Day 7
  The Number of Viable Cell: ≥ 10000 cells/mL
[2]; 37° C., 30% w/w, Day 14
  The Number of Viable Cell: ≥ 10000 cells/mL
[2]; 37° C., 30% w/w, Day 28
  The Number of Viable Cell: ≥ 10000 cells/mL
[2]; 37° C., 30% w/w, Day 56
  The Number of Viable Cell: ≥ 10000 cells/mL
[2]; 37° C., 40% w/w, Day 0
  The Number of Viable Cell: ≥ 10000 cells/mL
[2]; 37° C., 40% w/w, Day 3
  The Number of Viable Cell: ≥ 10000 cells/mL
[2]; 37° C., 40% w/w, Day 7
  The Number of Viable Cell: ≥ 10000 cells/mL
[2]; 37° C., 40% w/w, Day 14
  The Number of Viable Cell: ≥ 10000 cells/mL
[2]; 37° C., 40% w/w, Day 28
  The Number of Viable Cell: ≥ 10000 cells/mL
[2]; 37° C., 40% w/w, Day 56
  The Number of Viable Cell: ≥ 10000 cells/mL
[2]; 45° C., 30% w/w, Day 0
  The Number of Viable Cell: ≥ 10000 cells/mL
[2]; 45° C., 30% w/w, Day 3
  The Number of Viable Cell: 190 cells/mL
[2]; 45° C., 30% w/w, Day 7
  The Number of Viable Cell: 0 cells/mL
[2]; 45° C., 30% w/w, Day 14
  The Number of Viable Cell: 0 cells/mL
[2]; 45° C., 30% w/w, Day 28
  The Number of Viable Cell: 0 cells/mL
[2]; 45° C., 30% w/w, Day 56
  The Number of Viable Cell: 0 cells/mL
[2]; 45° C., 40% w/w, Day 0
  The Number of Viable Cell: ≥ 10000 cells/mL
[2]; 45° C., 40% w/w, Day 3
  The Number of Viable Cell: 0 cells/mL
[2]; 45° C., 40% w/w, Day 7
  The Number of Viable Cell: 0 cells/mL
[2]; 45° C., 40% w/w, Day 14
  The Number of Viable Cell: 0 cells/mL
[2]; 45° C., 40% w/w, Day 28
  The Number of Viable Cell: 0 cells/mL
[2]; 45° C., 40% w/w, Day 56
  The Number of Viable Cell: 0 cells/mL
[2]; 45° C., 50% w/w, Day 0
  The Number of Viable Cell: ≥ 10000 cells/mL
[2]; 45° C., 50% w/w, Day 3
  The Number of Viable Cell: 0 cells/mL
[2]; 45° C., 50% w/w, Day 7
  The Number of Viable Cell: 0 cells/mL
[2]; 45° C., 50% w/w, Day 14
  The Number of Viable Cell: 0 cells/mL
[2]; 45° C., 50% w/w, Day 28
  The Number of Viable Cell: 0 cells/mL
[2]; 45° C., 50% w/w, Day 56
  The Number of Viable Cell: 0 cells/mL
[2]; 50° C., 30% w/w, Day 0
  The Number of Viable Cell: ≥ 10000 cells/mL
[2]; 50° C., 30% w/w, Day 3
  The Number of Viable Cell: 0 cells/mL
[2]; 50° C., 30% w/w, Day 7
  The Number of Viable Cell: 0 cells/mL
[2]; 50° C., 30% w/w, Day 14
  The Number of Viable Cell: 0 cells/mL
[2]; 50° C., 30% w/w, Day 28
  The Number of Viable Cell: 0 cells/mL
[2]; 50° C., 30% w/w, Day 56
  The Number of Viable Cell: 0 cells/mL
[2]; 50° C., 40% w/w, Day 0
  The Number of Viable Cell: ≥ 10000 cells/mL
[2]; 50° C., 40% w/w, Day 3
  The Number of Viable Cell: 0 cells/mL
[2]; 50° C., 40% w/w, Day 7
  The Number of Viable Cell: 0 cells/mL
[2]; 50° C., 40% w/w, Day 14
  The Number of Viable Cell: 0 cells/mL
[2]; 50° C., 40% w/w, Day 28
  The Number of Viable Cell: 0 cells/mL
[2]; 50° C., 40% w/w, Day 56
  The Number of Viable Cell: 0 cells/mL
[2]; 50° C., 50% w/w, Day 0
  The Number of Viable Cell: ≥ 10000 cells/mL
[2]; 50° C., 50% w/w, Day 3
  The Number of Viable Cell: 0 cells/mL
[2]; 50° C., 50% w/w, Day 7
  The Number of Viable Cell: 0 cells/mL
[2]; 50° C., 50% w/w, Day 14
  The Number of Viable Cell: 0 cells/mL
[2]; 50° C., 50% w/w, Day 28
  The Number of Viable Cell: 0 cells/mL
[2]; 50° C., 50% w/w, Day 56
  The Number of Viable Cell: 0 cells/mL
[2]; temperature of 50° C. or more
  growth of the microbes: prevented from growing
  time after which microbes died: 3 days
[3]; [4]
  change in pH: ≤ 1
  change in purity: no change
  change in the degree of coloring: ≤ 0.01
[3]; [5]
  Degree of Coloring: 0.028
  Purity (%): 99.9%
  pH: 5.7
[3]; [6]
  Degree of Coloring: 0.028
  Purity (%): 99.9%
  pH: 5.6
[3]; [7]
  Degree of Coloring: 0.026
  Purity (%): 100.0%
  pH: 5.4
[3]; [8]
  Degree of Coloring: 0.027
  Purity (%): 100.0%
  pH: 5.1
[3]; [9]
  Degree of Coloring: 0.021
  Purity (%): 99.9%
  pH: 5.7
[3]; [10]
  Degree of Coloring: 0.021
  Purity (%): 99.9%
  pH: 5.4
[3]; [11]
  Degree of Coloring: 0.023
  Purity (%): 99.9%
  pH: 5.5
[3]; [12]
  Degree of Coloring: 0.028
  Purity (%): 99.9%
  pH: 5.0
[3]; [13]
  Degree of Coloring: 0.029
  Purity (%): 100.0%
  pH: 5.7
[3]; [14]
  Degree of Coloring: 0.030
  Purity (%): 99.9%
  pH: 5.5
[3]; [15]
  Degree of Coloring: 0.029
  Purity (%): 100.0%
  pH: 5.2
[3]; [16]
  Degree of Coloring: 0.036
  Purity (%): 99.9%
  pH: 4.7
[3]; [17]
  Degree of Coloring: 0.025
  Purity (%): 99.9%
  pH: 5.7
[3]; [18]
  Degree of Coloring: 0.027
  Purity (%): 99.9%
  pH: 5.2
[3]; [19]
  Degree of Coloring: 0.033
  Purity (%): 99.9%
  pH: 4.8
[3]; [20]
  Degree of Coloring: 0.065
  Purity (%): 99.9%
  pH: 3.9
[3]; storage at a temperature of 55 to 65° C.
  storage stability (purity, coloring): without causing a decrease in purity or causing coloring
